From ChEMBL document CHEMBL1201862, “PubChem BioAssay data set” (2004)
Active and inactive are the calls of the source.

What was measured:
Nonstructural protein 1 = Nonstructural protein 1 (Influenza A virus, UniProt Q194T2); type: functional, Influenza A virus (A/California/07/2009(H1N1))
Paired box protein Pax-8 = Paired box protein Pax-8 (Homo sapiens, UniProt Q06710); test: PAX8 transcriptional activity inhibition in RMG-I – RMG-I cells, luciferase, cherry-pick, dose response (AID 687027); type: functional, cell-based;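 further: luciferase reporter driven by Pax8 target thyroperoxidase promoter measured by SteadyGlo luminescence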
Sequence of Paired box protein Pax-8 (Q06710 whole entry): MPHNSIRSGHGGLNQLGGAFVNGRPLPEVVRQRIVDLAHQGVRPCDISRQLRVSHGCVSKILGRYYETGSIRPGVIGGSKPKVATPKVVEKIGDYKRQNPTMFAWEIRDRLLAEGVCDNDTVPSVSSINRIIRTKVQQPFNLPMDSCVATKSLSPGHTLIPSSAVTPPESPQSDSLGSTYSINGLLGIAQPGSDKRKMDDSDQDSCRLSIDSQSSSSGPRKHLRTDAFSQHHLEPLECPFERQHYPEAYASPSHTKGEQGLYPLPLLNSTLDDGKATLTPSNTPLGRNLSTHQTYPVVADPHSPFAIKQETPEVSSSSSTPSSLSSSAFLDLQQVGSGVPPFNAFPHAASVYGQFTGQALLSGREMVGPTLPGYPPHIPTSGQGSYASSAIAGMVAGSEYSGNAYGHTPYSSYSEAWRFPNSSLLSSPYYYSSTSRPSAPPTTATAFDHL

Fatty acid synthase [1] = molecular target: T1, Fatty acid synthase (Homo sapiens, UniProt P49327); test: inhibition of human FAS-TE enzyme activity – biochemical, kinetic fluorescence intensity, dose response (AID 624326); type: functional;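 further: rate of fluorescence rise from hydrolysis of a fluorogenic O-methyl fluorescein ester substrate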
T1 sequence (P49327 whole entry): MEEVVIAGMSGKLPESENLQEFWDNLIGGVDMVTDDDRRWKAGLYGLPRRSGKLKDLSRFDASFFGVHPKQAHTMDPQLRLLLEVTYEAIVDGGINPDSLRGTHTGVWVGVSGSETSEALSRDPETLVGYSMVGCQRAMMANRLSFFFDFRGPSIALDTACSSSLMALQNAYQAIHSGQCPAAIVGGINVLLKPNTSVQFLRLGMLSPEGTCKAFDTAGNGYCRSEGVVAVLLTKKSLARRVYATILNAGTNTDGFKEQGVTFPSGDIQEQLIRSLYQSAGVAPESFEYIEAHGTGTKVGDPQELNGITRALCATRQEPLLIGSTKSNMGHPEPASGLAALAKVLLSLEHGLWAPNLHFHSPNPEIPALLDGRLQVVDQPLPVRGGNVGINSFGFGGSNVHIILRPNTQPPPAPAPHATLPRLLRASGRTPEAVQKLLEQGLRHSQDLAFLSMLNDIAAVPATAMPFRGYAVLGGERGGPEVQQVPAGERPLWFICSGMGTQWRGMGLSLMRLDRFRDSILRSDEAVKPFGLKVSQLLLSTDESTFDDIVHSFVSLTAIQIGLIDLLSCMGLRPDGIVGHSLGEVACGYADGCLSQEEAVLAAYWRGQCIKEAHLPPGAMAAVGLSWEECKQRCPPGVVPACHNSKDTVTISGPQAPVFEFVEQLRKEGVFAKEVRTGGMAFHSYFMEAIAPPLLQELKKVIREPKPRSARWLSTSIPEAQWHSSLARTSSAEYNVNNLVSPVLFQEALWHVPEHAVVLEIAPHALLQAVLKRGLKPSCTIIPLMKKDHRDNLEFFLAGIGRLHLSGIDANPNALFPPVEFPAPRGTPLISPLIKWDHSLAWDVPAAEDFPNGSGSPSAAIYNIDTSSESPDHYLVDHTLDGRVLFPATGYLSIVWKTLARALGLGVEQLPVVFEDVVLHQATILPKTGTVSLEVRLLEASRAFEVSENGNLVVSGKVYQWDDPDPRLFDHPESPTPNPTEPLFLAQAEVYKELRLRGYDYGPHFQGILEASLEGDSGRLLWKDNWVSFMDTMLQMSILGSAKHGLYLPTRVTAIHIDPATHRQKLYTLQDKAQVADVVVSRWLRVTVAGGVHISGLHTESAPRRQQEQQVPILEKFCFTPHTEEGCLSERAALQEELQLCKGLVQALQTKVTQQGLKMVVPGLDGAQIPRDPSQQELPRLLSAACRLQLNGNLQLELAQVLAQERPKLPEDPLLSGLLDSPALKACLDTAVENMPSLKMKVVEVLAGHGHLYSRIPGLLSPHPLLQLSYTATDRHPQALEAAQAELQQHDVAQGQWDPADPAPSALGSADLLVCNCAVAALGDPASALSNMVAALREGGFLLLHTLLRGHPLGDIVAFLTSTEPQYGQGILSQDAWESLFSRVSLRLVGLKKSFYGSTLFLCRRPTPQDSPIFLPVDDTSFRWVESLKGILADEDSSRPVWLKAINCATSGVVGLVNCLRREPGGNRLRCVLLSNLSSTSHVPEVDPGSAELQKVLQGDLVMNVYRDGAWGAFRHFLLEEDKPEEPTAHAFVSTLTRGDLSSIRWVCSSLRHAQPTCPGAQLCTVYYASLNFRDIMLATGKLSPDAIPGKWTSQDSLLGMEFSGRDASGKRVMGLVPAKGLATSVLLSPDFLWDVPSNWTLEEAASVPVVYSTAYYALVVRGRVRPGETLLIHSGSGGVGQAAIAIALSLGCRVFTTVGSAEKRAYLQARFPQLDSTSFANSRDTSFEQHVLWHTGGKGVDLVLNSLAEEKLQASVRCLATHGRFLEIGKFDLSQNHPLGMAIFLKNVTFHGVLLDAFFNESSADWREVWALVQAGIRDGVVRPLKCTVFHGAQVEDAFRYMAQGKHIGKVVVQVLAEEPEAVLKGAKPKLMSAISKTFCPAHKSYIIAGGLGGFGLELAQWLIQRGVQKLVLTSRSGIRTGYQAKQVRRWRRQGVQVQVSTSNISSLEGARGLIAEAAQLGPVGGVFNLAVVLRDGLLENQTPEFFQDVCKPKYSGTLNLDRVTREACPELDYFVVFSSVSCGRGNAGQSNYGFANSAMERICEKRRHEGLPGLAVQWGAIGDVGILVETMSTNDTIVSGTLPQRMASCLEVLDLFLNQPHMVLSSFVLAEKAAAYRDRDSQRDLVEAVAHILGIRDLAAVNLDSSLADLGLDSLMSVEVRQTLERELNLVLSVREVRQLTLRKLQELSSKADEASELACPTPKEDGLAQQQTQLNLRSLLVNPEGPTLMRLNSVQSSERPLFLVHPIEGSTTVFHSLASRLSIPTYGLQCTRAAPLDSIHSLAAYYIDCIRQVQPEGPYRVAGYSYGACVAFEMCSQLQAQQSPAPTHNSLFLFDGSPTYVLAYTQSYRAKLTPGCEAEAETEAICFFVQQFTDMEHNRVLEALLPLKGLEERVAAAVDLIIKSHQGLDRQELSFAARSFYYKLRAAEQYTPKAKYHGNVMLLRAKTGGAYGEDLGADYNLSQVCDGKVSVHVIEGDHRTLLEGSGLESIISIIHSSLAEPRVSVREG

Fatty acid synthase [2] = molecular target: T1, Fatty acid synthase; test: inhibition of human FAS-TE enzyme activity – biochemical, endpoint fluorescence intensity, uHTS hits, dose response (AID 624327); type: functional;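 further: fluorescence from hydrolysis of an O-methyl fluorescein acyl ester substrate by the enzyme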
[3] = blockers of HIV-1 ZM109 envelope-driven cell-cell fusion – HeLa effector, CEM target cells, luciferase, cherry-pick, dose response (AID 652058); type: functional, cell-based;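 further: luciferase signal from HIV-1 Env mediated cell-cell fusion of effector and target cells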
[4] = blockers of HIV-1 envelope-mediated cell-cell fusion – cherry-pick, dose response (AID 652057); type: functional, cell-based
[5] = HIV-1 AD8 envelope cell-cell fusion blockers – cherry-pick, dose response (AID 652062); type: functional, cell-based;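 further: luciferase signal from cell-cell fusion driven by HIV-1 clade B AD8 Env; potency is for inhibitors of fusion seen as a drop in luminescence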
SN12K1 = test: cells; type: functional; conditions: Homo sapiens
[6] = P. falciparum Dd2 growth inhibitors, dose response, SYBR Green, cherry-picked samples (AID 1159567); type: functional, cell-based
[7] = toxicity to human hepatoma HepG2 cells – cell-based, cherry-picked samples, cytotoxicity control, dose response (AID 1159577); type: functional
[8] = molecular target: T2, Microphthalmia-associated transcription factor (Homo sapiens, UniProt O75030); test: reducers of TRPM1 reporter luminescence, concentration series – cell-based, SK-MEL-5, cherry-picked, set 3, MITF inhibitor project, dose response (AID 493073); type: functional;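 further: SK-MEL-5 melanoma cells with luciferase driven by the MITF target TRPM1 promoter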
T2 sequence (O75030 whole entry): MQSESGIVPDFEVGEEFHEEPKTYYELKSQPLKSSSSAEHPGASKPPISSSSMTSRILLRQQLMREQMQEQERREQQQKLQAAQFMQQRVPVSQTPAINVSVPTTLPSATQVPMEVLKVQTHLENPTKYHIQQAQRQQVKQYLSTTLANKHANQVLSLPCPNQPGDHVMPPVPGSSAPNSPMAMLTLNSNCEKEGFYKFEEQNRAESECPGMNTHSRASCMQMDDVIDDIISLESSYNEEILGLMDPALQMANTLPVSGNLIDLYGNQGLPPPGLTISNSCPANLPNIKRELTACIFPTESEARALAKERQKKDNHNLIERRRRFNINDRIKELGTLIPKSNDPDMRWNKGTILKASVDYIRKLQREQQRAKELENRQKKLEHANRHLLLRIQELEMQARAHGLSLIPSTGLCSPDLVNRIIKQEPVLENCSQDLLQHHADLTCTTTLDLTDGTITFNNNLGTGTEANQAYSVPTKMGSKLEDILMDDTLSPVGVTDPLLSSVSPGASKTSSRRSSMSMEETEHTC

[9] = Vero E6 cell cytotoxicity, dose response, cytotoxicity control for non-replicating M. tuberculosis project, secondary assay (AID 492998); type: functional, VeroE6; conditions: Vero C1008
cells [10] = type: functional, cell-based
[11] = THP-1 cell cytotoxicity, dose response, cytotoxicity control for non-replicating M. tuberculosis project (AID 489025); type: functional
cells [12] = type: functional
cells [13] = type: functional, cell-based; remark: listed apart in the source
[14] = molecular target: T3, Replicative DNA helicase DnaB (Mycobacterium tuberculosis, UniProt P9WMR3); test: DnaB intein splicing inhibitors, dose response, biochemical, cell-free fluorescence (AID 449749); type: functional
T3 sequence (P9WMR3 whole entry): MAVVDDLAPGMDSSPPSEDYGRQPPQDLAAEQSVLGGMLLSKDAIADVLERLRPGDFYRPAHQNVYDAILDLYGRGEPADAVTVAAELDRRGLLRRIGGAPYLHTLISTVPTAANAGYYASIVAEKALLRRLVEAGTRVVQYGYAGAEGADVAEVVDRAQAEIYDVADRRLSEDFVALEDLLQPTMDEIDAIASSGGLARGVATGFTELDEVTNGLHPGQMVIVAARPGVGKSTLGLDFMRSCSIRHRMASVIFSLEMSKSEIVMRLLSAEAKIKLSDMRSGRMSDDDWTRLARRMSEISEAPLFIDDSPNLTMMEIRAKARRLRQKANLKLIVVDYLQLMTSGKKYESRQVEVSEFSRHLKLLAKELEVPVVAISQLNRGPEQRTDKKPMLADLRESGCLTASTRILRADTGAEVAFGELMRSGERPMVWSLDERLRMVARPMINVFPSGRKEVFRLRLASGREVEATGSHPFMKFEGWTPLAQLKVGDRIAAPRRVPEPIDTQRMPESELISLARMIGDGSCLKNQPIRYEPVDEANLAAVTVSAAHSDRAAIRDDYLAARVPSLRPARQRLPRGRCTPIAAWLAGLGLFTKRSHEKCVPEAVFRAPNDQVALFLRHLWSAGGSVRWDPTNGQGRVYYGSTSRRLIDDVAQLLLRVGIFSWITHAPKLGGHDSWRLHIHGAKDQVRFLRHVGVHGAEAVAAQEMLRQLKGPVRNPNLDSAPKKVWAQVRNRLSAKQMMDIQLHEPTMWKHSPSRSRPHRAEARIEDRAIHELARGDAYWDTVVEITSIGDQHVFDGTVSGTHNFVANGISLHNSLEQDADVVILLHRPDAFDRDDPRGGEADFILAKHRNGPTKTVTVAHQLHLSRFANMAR

[15] = Trypanosoma cruzi growth suppression in host cells – NIH3T3 host cells, beta-gal luminescence, confirmation (AID 2044); type: functional, cell-based;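 further: intracellular parasites grown in NIH/3T3 mouse fibroblasts as host cells; luminescent beta-galactosidase reporter signal from transgenic T. cruzi replicating inside host cells; inhibitors lower the luminescence signal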
Protein RecA = molecular target: T4, Protein RecA (Mycobacterium tuberculosis, UniProt P9WHJ3); test: Fluorescence Cell-Free Homogeneous Dose Retest to Identify Inhibitors of RecA-Intein Splicing Activity. [Related pubchem assays (depositor defined):AID2097, AID2223, AID489010, AID492950]; type: functional
T4 sequence (P9WHJ3 whole entry): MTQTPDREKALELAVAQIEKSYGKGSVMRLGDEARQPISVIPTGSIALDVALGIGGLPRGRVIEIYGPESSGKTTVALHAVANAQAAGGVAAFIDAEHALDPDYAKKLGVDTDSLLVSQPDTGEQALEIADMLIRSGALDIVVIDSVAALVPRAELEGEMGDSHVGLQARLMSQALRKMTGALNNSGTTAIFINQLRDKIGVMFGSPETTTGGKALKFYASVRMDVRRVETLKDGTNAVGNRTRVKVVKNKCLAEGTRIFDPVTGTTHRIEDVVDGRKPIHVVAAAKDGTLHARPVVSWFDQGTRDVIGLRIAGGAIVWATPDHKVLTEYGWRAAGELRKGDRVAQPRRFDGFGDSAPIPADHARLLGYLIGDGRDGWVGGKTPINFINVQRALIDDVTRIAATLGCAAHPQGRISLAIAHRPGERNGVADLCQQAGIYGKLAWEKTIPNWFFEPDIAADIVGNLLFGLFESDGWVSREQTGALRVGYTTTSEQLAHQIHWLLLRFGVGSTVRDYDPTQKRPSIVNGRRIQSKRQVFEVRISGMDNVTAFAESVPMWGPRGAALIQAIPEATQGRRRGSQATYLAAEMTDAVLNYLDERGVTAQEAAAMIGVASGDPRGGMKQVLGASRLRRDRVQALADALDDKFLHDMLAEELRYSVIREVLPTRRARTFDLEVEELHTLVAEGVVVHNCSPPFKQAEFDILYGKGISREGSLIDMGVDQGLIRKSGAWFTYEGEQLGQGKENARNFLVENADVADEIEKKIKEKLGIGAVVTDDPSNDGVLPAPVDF

[16] = viability of PTEN-deleted HCT116 cells – cell-based, HCT116 PTEN knockout, dose response (AID 1047); type: functional;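 further: HCT116 colon tumor cells with PTEN knocked out; cells exposed to compound for 60 hours before readout; potency for loss of cell viability measured by luminescence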
[17] = fluconazole-exposed Candida albicans growth modulators – fluorescence, retest, confirmation (AID 2467); type: functional, cell-based
[18] = NIH-3T3 fibroblast cytotoxicity, dose response, cytotoxicity control, cell-based, fluorescence, Alamar Blue, secondary assay (AID 2327); type: functional;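 further: NIH-3T3 mouse fibroblasts cultured with fluconazole at 8 µg/mL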
[19] = viability of HCT116 lacking mutant beta-catenin – cell-based, human colon tumor, dose response (AID 1045); type: functional;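 further: HCT116 colon tumor cells with beta catenin knocked out; cells exposed to compound for 60 hours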
[20] = alpha-synuclein stem-loop luciferase translation blockers – H4 neuroglioma cells, luminescence, confirmation (AID 1988); type: functional, cell-based
[21] = NIH3T3 cell viability loss – ATP luminescence, mouse fibroblasts, counter-screen, dose response (AID 2010); type: functional, cell-based;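 further: cells exposed to compound for about 90 hours before reading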
[22] = Luminescence Cell-Based Dose Response HTS to Identify Inhibitors of 5'UTR Stem-Loop Driven Prion Protein mRNA Translation in H4 Neuroglioblastoma Cells. [Related pubchem assays: 1827 (Project Summary), 1813 (Primary HTS)]; type: functional
[23] = luciferase reporter signal suppression in cells – H4 neuroglioma cells, luminescence, dose response (AID 1990); type: functional, cell-based

Sequence of Nonstructural protein 1 (Q194T2 whole entry): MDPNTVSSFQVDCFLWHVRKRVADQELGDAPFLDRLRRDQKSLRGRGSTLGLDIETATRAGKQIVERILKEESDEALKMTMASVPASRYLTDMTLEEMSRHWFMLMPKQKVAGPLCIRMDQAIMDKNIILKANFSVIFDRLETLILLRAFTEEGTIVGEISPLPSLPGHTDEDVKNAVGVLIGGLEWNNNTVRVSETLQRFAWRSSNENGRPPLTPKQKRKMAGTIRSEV

O=C(NN=Cc1c(O)ccc2ccccc12)c1ccncc1
IC50 (Nonstructural protein 1): 11.9 µM (active)
AC50 (Paired box protein Pax-8): 1.17 µM (active)

O=C(COc1ccc(S(=O)(=O)N2CCCCC2)cc1)Nc1ccccc1F
IC50 (Fatty acid synthase [1]): 17.2 µM (active)
IC50 (Fatty acid synthase [2]): 16 µM (active)

C[C@@H]1CN([C@@H](C)CO)S(=O)(=O)c2ccc(-c3ccccc3)cc2O[C@H]1CN(C)S(C)(=O)=O
AC50 [3]: 44 µM (active)

COc1cccc(S(=O)(=O)N2CCC3(CC2)CN(C(=O)Nc2cccc(F)c2)[C@@H](CO)c2[nH]c4cc(OC)ccc4c23)c1
AC50 [3]: 6.68 µM (active)
AC50 [4]: 6.21 µM (active)
AC50 [5]: 8.03 µM (active)

Nc1ncnc2c1ncn2C1C(O)C=C(CO)C1O (centres undefined)
GI50 (SN12K1): > 625 µM (inactive)

N#C[C@H]1[C@H](c2ccc(C#Cc3ccccc3F)cc2)[C@@H](CO)N1C(=O)C1CCCC1
AC50 [6]: 4.27 µM (active)
AC50 [7]: > 39 µM (inactive)

COc1cccc2sc(N3CCN(C(=O)c4ccc([N+](=O)[O-])o4)CC3)nc12
AC50 [8]: 7.03 µM (active)
CC50 [9]: 18.9 µM (active)
EC50 (cells [10]): > 350 µM (not active)
CC50 [11]: 36.5 µM (active)
IC50 (cells [12]): < 0.1 µM (active)
EC50 (cells [13]): > 350 µM (not active)

CC(=O)N(Cc1ccc(F)cc1)C1=C(NCc2ccccc2)C(=O)c2ccccc2C1=O
IC50 (Nonstructural protein 1): 35.3 µM (active)
AC50 [14]: 5.17 µM (active)
EC50 [15]: 0.317 µM (active)
EC50 (Protein RecA): 0.776 µM (active)
EC50 [16]: 0.54 µM (active)
EC50 [17]: 0.708 µM (active)
EC50 [18]: 4.92 µM (inconclusive)
EC50 [19]: 0.444 µM (active)
EC50 [20]: 8.2 µM (active)
EC50 [21]: 7.47 µM (active)
EC50 [22]: > 120 µM (not active)
EC50 [23]: 8.34 µM (active)
